Laboratory results from US10618903B2, “Heteroaryl substituted aminopyridine compounds” (BRISTOL-MYERS SQUIBB COMPANY, priority 2015, dated 2020).
pEC50, pIC50: −log10 of the molar value.

What was measured:
[1] = tested on: IL-6 levels in human whole blood stimulated with a TLR2 agonist; assay: IRAK4 Whole Blood Assay (lipoteichoic acid/TLR2-stimulated IL-6); format: cell-based; settings: lipoteichoic acid 10 μg/mL, IL-6 readout
Summary of the method: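 IL-6 was quantified by cytometric bead assay in supernatants of human blood (ACD-A) stimulated for 5 h with lipoteichoic acid at 10 μg/mL final. Compound exposure preceded stimulation for 60 min at 37 °C, 5% CO2.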

IRAK4 = IRAK4 (Homo sapiens (Human), UniProt Q9NWZ3); assay: IRAK4 Inhibition Assay; format: biochemical; settings: ATP 500 μM; IRAK4 0.6 nM
Summary of the method: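 Readout: electrophoretic (LabChip) separation of fluorescent peptide substrate from phosphorylated product after EDTA quench. Reactions ran 60 min at room temperature with 0.6 nM IRAK4, 1.5 μM peptide and 500 μM ATP; inhibition referenced to no-enzyme (100%) and vehicle (0%) controls.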

Caco Permeability Assay = format: in vitro ADME; settings: human, Caco-2, Caco-2 cells, 3 μM compound

Sequence of IRAK4 (Q9NWZ3 whole entry): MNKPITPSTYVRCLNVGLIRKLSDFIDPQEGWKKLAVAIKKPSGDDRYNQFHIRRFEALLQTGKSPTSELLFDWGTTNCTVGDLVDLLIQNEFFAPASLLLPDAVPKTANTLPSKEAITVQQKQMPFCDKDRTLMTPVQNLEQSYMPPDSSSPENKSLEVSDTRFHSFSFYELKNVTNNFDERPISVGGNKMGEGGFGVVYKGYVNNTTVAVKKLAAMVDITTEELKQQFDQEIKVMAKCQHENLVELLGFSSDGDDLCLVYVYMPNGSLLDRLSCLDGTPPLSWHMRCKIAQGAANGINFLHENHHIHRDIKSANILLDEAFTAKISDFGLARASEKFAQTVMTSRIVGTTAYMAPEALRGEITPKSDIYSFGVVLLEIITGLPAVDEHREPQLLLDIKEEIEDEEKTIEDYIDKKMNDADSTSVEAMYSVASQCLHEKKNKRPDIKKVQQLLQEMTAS

CC1(Nc2cc(-c3cnc4cc(Cl)cnn34)ncc2C(=O)NC[C@H](F)C(C)(C)O)CC1 [Example 198, (S)-6-(7-chloroimidazo[1,2-b]pyridazin-3-yl)-N-(2-fluoro-3-hydroxy-3-methylbutyl)-4-((1-methylcyclopropyl)amino) nicotinamide]
pEC50 ([1]; Homo sapiens): 6.33
pIC50 (IRAK4): 9.00
Papp at 2 h, 3 µM (Caco Permeability Assay): 18.4 ×10⁻⁶ cm/s

CC(C)(O)[C@H](F)CNC(=O)c1cnc(-c2cnc3cc(Cl)cnn23)cc1NC1CC(F)C1 (stereo partly drawn) [Example 199, (R)-6-(7-chloroimidazo[1,2-b]pyridazin-3-yl)-N-(2-fluoro-3-hydroxy-3-methylbutyl)-4-((3-fluorocyclobutyl)amino)nicotinamide]
pEC50 ([1]; Homo sapiens): 6.26
pIC50 (IRAK4): 8.40
Papp at 2 h, 3 µM (Caco Permeability Assay): 15.8 ×10⁻⁶ cm/s

CC(C)(O)[C@H](F)CNC(=O)c1cnc(-c2cnc3cc(C#N)cnn23)cc1NC1CCOC1 (stereo partly drawn) [Example 201, 6-(7-cyanoimidazo[1,2-b]pyridazin-3-yl)-N—((R)-2-fluoro-3-hydroxy-3-methylbutyl)-4-((tetrahydrofuran-3-yl)amino) nicotinamide]
pEC50 ([1]; Homo sapiens): 7.10
pIC50 (IRAK4): 8.52
Papp at 2 h, 3 µM (Caco Permeability Assay): < 1.5 ×10⁻⁶ cm/s

CC(C)(O)[C@H](F)CNC(=O)c1cnc(-c2cnc3cc(C#N)cnn23)cc1NCCC(F)(F)F [Example 205, (R)-6-(7-cyanoimidazo[1,2-b]pyridazin-3-yl)-N-(2-fluoro-3-hydroxy-3-methylbutyl)-4-((3,3,3-trifluoropropyl)amino)nicotinamide]
pEC50 ([1]; Homo sapiens): 6.68
pIC50 (IRAK4): 8.40
Papp at 2 h, 3 µM (Caco Permeability Assay): 4.5 ×10⁻⁶ cm/s

CC(C)Nc1cc(-c2cnc3cc(C#N)cnn23)ncc1C(=O)NCCc1ccccn1 [Example 216, 6-(7-cyanoimidazo[1,2-b]pyridazin-3-yl)-4-(isopropylamino)-N-(2-(pyridin-2-yl)ethyl)nicotinamide]
pEC50 ([1]; Homo sapiens): 6.51
pIC50 (IRAK4): 8.10
Papp at 2 h, 3 µM (Caco Permeability Assay): 23.9 ×10⁻⁶ cm/s

CC(C)Nc1cc(-c2cnc3cc(C#N)cnn23)ncc1C(=O)NCCC1(O)CCCC1 [Example 217, 6-(7-cyanoimidazo[1,2-b]pyridazin-3-yl)-N-(2-(1-hydroxycyclopentyl)ethyl)-4-(isopropylamino)nicotinamide]
pEC50 ([1]; Homo sapiens): 6.52
pIC50 (IRAK4): 8.70
Papp at 2 h, 3 µM (Caco Permeability Assay): 25.6 ×10⁻⁶ cm/s

CC(C)(O)CCNC(=O)c1cnc(-c2cnc3cc(Cl)cnn23)cc1NC1COC1 [Example 218, 6-(7-chloroimidazo[1,2-b]pyridazin-3-yl)-N-(3-hydroxy-3-methylbutyl)-4-(oxetan-3-ylamino)nicotinamide]
pEC50 ([1]; Homo sapiens): 6.66
pIC50 (IRAK4): 8.30
Papp at 2 h, 3 µM (Caco Permeability Assay): 2.1 ×10⁻⁶ cm/s

CC(C)(O)[C@H](F)CNC(=O)c1cnc(-c2cnn3cc(Cl)cnc23)cc1Nc1cnn(CC(F)(F)F)c1 [Example 226, (R)-6-(6-chloropyrazolo[1,5-a]pyrimidin-3-yl)-N-(2-fluoro-3-hydroxy-3-methylbutyl)-4-((1-(2,2,2-trifluoroethyl)-1H-pyrazol-4-yl)amino)nicotinamide]
pEC50 [1]: 6.68
pIC50 (IRAK4): 8.52
Papp at 2 h, 3 µM (Caco Permeability Assay): 3.6 ×10⁻⁶ cm/s

CC(C)(F)Cn1cc(Nc2cc(-c3cnn4cc(Cl)cnc34)ncc2C(=O)NC[C@@H](F)C(C)(C)O)cn1 [Example 227, (R)-6-(6-chloropyrazolo[1,5-a]pyrimidin-3-yl)-4-((1-(2-fluoro-2-methylpropyl)-1H-pyrazol-4-yl)amino)-N-(2-fluoro-3-hydroxy-3-methylbutyl)nicotinamide]
pEC50 ([1]; Homo sapiens): 6.77
pIC50 (IRAK4): 8.70
Papp at 2 h, 3 µM (Caco Permeability Assay): 4 ×10⁻⁶ cm/s

CC(C)(F)Cn1ccc(Nc2cc(-c3cnn4cc(Cl)cnc34)ncc2C(=O)NC[C@@H](F)C(C)(C)O)n1 [Example 229, (R)-6-(6-chloropyrazolo[1,5-a]pyrimidin-3-yl)-4-((1-(2-fluoro-2-methylpropyl)-1H-pyrazol-3-yl)amino)-N-(2-fluoro-3-hydroxy-3-methylbutyl)nicotinamide]
pEC50 ([1]; Homo sapiens): 6.24
pIC50 (IRAK4): 8.05
Papp at 2 h, 3 µM (Caco Permeability Assay): 11.3 ×10⁻⁶ cm/s

CC(C)(O)[C@H](F)CNC(=O)c1cnc(-c2cnn3cc(C#N)cnc23)cc1Nc1ccn(CC(F)F)n1 [Example 230, (R)-6-(6-cyanopyrazolo[1,5-a]pyrimidin-3-yl)-4-((1-(2,2-difluoroethyl)-1H-pyrazol-3-yl)amino)-N-(2-fluoro-3-hydroxy-3-methylbutyl)nicotinamide]
pEC50 ([1]; Homo sapiens): 6.37
pIC50 (IRAK4): 8.52
Papp at 2 h, 3 µM (Caco Permeability Assay): < 1.5 ×10⁻⁶ cm/s

CC(C)(O)[C@H](F)CNC(=O)c1cnc(-c2cnn3cc(Cl)cnc23)cc1Nc1cnn(C(F)F)c1 [Example 231, (R)-6-(6-chloropyrazolo[1,5-a]pyrimidin-3-yl)-4-((1-(difluoromethyl)-1H-pyrazol-4-yl)amino)-N-(2-fluoro-3-hydroxy-3-methylbutyl) nicotinamide]
pEC50 ([1]; Homo sapiens): 6.47
pIC50 (IRAK4): 9.00
Papp at 2 h, 3 µM (Caco Permeability Assay): 12.6 ×10⁻⁶ cm/s

CCn1cc(Nc2cc(-c3cnn4cc(Cl)cnc34)ncc2C(=O)NC[C@@H](F)C(C)(C)O)cn1 [Example 232, (R)-6-(6-chloropyrazolo[1,5-a]pyrimidin-3-yl)-4-((1-ethyl-1H-pyrazol-4-yl)amino)-N-(2-fluoro-3-hydroxy-3-methylbutyl)nicotinamide]
pEC50 ([1]; Homo sapiens): 6.85
pIC50 (IRAK4): 9.00
Papp at 2 h, 3 µM (Caco Permeability Assay): 3.7 ×10⁻⁶ cm/s

CC(C)(F)Cn1cc(Nc2cc(-c3cnn4cc(C#N)cnc34)ncc2C(=O)NC[C@@H](F)C(C)(C)O)cn1 [Example 235, (R)-6-(6-cyanopyrazolo[1,5-a]pyrimidin-3-yl)-4-((1-(2-fluoro-2-methylpropyl)-1H-pyrazol-4-yl)amino)-N-(2-fluoro-3-hydroxy-3-methylbutyl)nicotinamide]
pEC50 ([1]; Homo sapiens): 6.70
pIC50 (IRAK4): 8.70
Papp at 2 h, 3 µM (Caco Permeability Assay): 2.3 ×10⁻⁶ cm/s

CC(C)(O)[C@H](F)CNC(=O)c1cnc(-c2cnn3cc(C#N)cnc23)cc1Nc1cnn(CC(F)(F)F)c1 [Example 236, (R)-6-(6-cyanopyrazolo[1,5-a]pyrimidin-3-yl)-N-(2-fluoro-3-hydroxy-3-methylbutyl)-4-((1-(2,2,2-trifluoroethyl)-1H-pyrazol-4-yl)amino) nicotinamide]
pEC50 [1]: 6.18
pIC50 (IRAK4): 8.52
Papp at 2 h, 3 µM (Caco Permeability Assay): < 1.5 ×10⁻⁶ cm/s

CC(F)(F)Cn1cc(Nc2cc(-c3cnn4cc(C#N)cnc34)ncc2C(=O)NC[C@@H](F)C(C)(C)O)cn1 [Example 238, (R)-6-(6-cyanopyrazolo[1,5-a]pyrimidin-3-yl)-4-((1-(2,2-difluoropropyl)-1H-pyrazol-4-yl)amino)-N-(2-fluoro-3-hydroxy-3-methylbutyl)nicotinamide]
pEC50 ([1]; Homo sapiens): 6.66
pIC50 (IRAK4): 8.70
Papp at 2 h, 3 µM (Caco Permeability Assay): 2.1 ×10⁻⁶ cm/s

CC(F)(F)Cn1cc(Nc2cc(-c3cnn4cc(Cl)cnc34)ncc2C(=O)NC[C@@H](F)C(C)(C)O)cn1 [Example 239, (R)-6-(6-chloropyrazolo[1,5-a]pyrimidin-3-yl)-4-((1-(2,2-difluoropropyl)-1H-pyrazol-4-yl)amino)-N-(2-fluoro-3-hydroxy-3-methylbutyl)nicotinamide]
pEC50 ([1]; Homo sapiens): 6.46
pIC50 (IRAK4): 9.00
Papp at 2 h, 3 µM (Caco Permeability Assay): 14.4 ×10⁻⁶ cm/s

Cn1cc(Nc2cc(-c3cnn4cc(C#N)cnc34)ncc2C(=O)NC[C@@H](F)C(C)(C)O)cn1 [Example 240, (R)-6-(6-cyanopyrazolo[1,5-a]pyrimidin-3-yl)-N-(2-fluoro-3-hydroxy-3-methylbutyl)-4-((1-methyl-1H-pyrazol-4-yl)amino)nicotinamide]
pEC50 ([1]; Homo sapiens): 6.74
pIC50 (IRAK4): 8.70
Papp at 2 h, 3 µM (Caco Permeability Assay): < 1.5 ×10⁻⁶ cm/s

COCCn1cc(Nc2cc(-c3cnn4cc(Cl)cnc34)ncc2C(=O)NC[C@@H](F)C(C)(C)O)cn1 [Example 242, (R)-6-(6-chloropyrazolo[1,5-a]pyrimidin-3-yl)-N-(2-fluoro-3-hydroxy-3-methylbutyl)-4-((1-(2-methoxyethyl)-1H-pyrazol-4-yl)amino) nicotinamide]
pEC50 ([1]; Homo sapiens): 7.22
pIC50 (IRAK4): 8.70
Papp at 2 h, 3 µM (Caco Permeability Assay): 2.1 ×10⁻⁶ cm/s

COCCn1cc(Nc2cc(-c3cnn4cc(C#N)cnc34)ncc2C(=O)NC[C@@H](F)C(C)(C)O)cn1 [Example 243, (R)-6-(6-cyanopyrazolo[1,5-a]pyrimidin-3-yl)-N-(2-fluoro-3-hydroxy-3-methylbutyl)-4-((1-(2-methoxyethyl)-1H-pyrazol-4-yl)amino)nicotinamide]
pEC50 ([1]; Homo sapiens): 6.80
pIC50 (IRAK4): 8.52
Papp at 2 h, 3 µM (Caco Permeability Assay): < 1.5 ×10⁻⁶ cm/s

Cc1cc(Nc2cc(-c3cnn4cc(C#N)cnc34)ncc2C(=O)NC[C@@H](F)C(C)(C)O)n(C)n1 [Example 244, (R)-6-(6-cyanopyrazolo[1,5-a]pyrimidin-3-yl)-4-((1,3-dimethyl-1H-pyrazol-5-yl)amino)-N-(2-fluoro-3-hydroxy-3-methylbutyl)nicotinamide]
pEC50 ([1]; Homo sapiens): 6.42
pIC50 (IRAK4): 8.10
Papp at 2 h, 3 µM (Caco Permeability Assay): < 1.5 ×10⁻⁶ cm/s

CC(F)(F)Cn1ccc(Nc2cc(-c3cnn4cc(C#N)cnc34)ncc2C(=O)NC[C@@H](F)C(C)(C)O)n1 [Example 245, (R)-6-(6-cyanopyrazolo[1,5-a]pyrimidin-3-yl)-4-((1-(2,2-difluoropropyl)-1H-pyrazol-3-yl)amino)-N-(2-fluoro-3-hydroxy-3-methylbutyl)nicotinamide]
pEC50 ([1]; Homo sapiens): 6.39
pIC50 (IRAK4): 8.40
Papp at 2 h, 3 µM (Caco Permeability Assay): 1.8 ×10⁻⁶ cm/s

CC(C)(O)[C@H](F)CNC(=O)c1cnc(-c2cnn3cc(Cl)cnc23)cc1Nc1cnn(C2CC2)c1 [Example 246, (R)-6-(6-chloropyrazolo[1,5-a]pyrimidin-3-yl)-4-((1-cyclopropyl-1H-pyrazol-4-yl)amino)-N-(2-fluoro-3-hydroxy-3-methylbutyl)nicotinamide]
pEC50 ([1]; Homo sapiens): 6.89
pIC50 (IRAK4): 9.00
Papp at 2 h, 3 µM (Caco Permeability Assay): 4.7 ×10⁻⁶ cm/s
